Measurements reported in the supplement of paper PMC10307832.

Legend:
Experiment in all cases: relative viability (nuclei count vs DMSO), 5 days (fraction); higher = more cells survive
Daporinad + Dasatinib = compound: O=C(/C=C/c1cccnc1)NCCCCC1CCN(C(=O)c2ccccc2)CC1 [Daporinad] + Cc1nc(Nc2ncc(C(=O)Nc3c(C)cccc3Cl)s2)cc(N2CCN(CCO)CC2)n1 [Dasatinib] (partner 0.075 µM)
Summary of the method: (§1)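 Five library-drug doses in √10 steps were combined with a fixed anchor-drug dose, or a single drug was given alone, by pin tool to lung cancer cell lines in 1536-well plates the day after seeding. Nuclei were stained and counted after 5 days. Relative viability is the nuclei count in treated wells over that in vehicle wells, taken as the median of duplicate plates.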

R406 + Lapatinib = compound: COc1cc(Nc2ncc(F)c(Nc3ccc4c(n3)NC(=O)C(C)(C)O4)n2)cc(OC)c1OC [R406] + CS(=O)(=O)CCNCc1ccc(-c2ccc3ncnc(Nc4ccc(OCc5cccc(F)c5)c(Cl)c4)c3c2)o1 [Lapatinib] (partner 2 µM)
Summary of the method: as §1

R406 + Navitoclax = compound: COc1cc(Nc2ncc(F)c(Nc3ccc4c(n3)NC(=O)C(C)(C)O4)n2)cc(OC)c1OC [R406] + CC1(C)CCC(c2ccc(Cl)cc2)=C(CN2CCN(c3ccc(C(=O)NS(=O)(=O)c4ccc(N[C@H](CCN5CCOCC5)CSc5ccccc5)c(S(=O)(=O)C(F)(F)F)c4)cc3)CC2)C1 [Navitoclax] (partner 0.5 µM)
Summary of the method: as §1

Daporinad + Luminespib = compound: O=C(/C=C/c1cccnc1)NCCCCC1CCN(C(=O)c2ccccc2)CC1 [Daporinad] + CCNC(=O)c1noc(-c2cc(C(C)C)c(O)cc2O)c1-c1ccc(CN2CCOCC2)cc1 [Luminespib] (partner 0.01 µM)
Summary of the method: as §1

| Cell Line | relative viability (Daporinad + Dasatinib; first compound 0.0005 µM) | relative viability (Daporinad + Dasatinib; first compound 0.001581 µM) | relative viability (Daporinad + Dasatinib; first compound 0.005 µM) | relative viability (Daporinad + Dasatinib; first compound 0.01581 µM) | relative viability (R406 + Lapatinib; first compound 0.08 µM) | relative viability (R406 + Lapatinib; first compound 0.253 µM) | relative viability (R406 + Lapatinib; first compound 0.8 µM) | relative viability (R406 + Lapatinib; first compound 2.53 µM) | relative viability (R406 + Lapatinib; first compound 8 µM) | relative viability (R406 + Navitoclax; first compound 0.08 µM) | relative viability (R406 + Navitoclax; first compound 0.253 µM) | relative viability (R406 + Navitoclax; first compound 0.8 µM) | relative viability (R406 + Navitoclax; first compound 2.53 µM) | relative viability (R406 + Navitoclax; first compound 8 µM) | relative viability (Daporinad + Luminespib; first compound 0.0005 µM) | relative viability (Daporinad + Luminespib; first compound 0.001581 µM) | relative viability (Daporinad + Luminespib; first compound 0.005 µM) | relative viability (Daporinad + Luminespib; first compound 0.01581 µM) |
| --- | --- | --- | --- | --- | --- | --- | --- | --- | --- | --- | --- | --- | --- | --- | --- | --- | --- | --- |
| LCLC-97TM1 | 0.77 | 0.89 | 0.865 | 0.844 | 0.647 | 0.855 | 1.06 | 0.717 | 1.13 | 0.375 | 0.511 | 0.519 | 0.254 | 0.462 | 0.714 | 0.86 | 0.768 | 0.774 |
| NCI-H647 | 0.146 | 0.27 | 0.282 | 0.196 | 0.84 | 1.17 | 1.78 | 0.0824 | 0.157 | 1.04 | 1.29 | 1.18 | 0.562 | 0.467 | 0.183 | 0.173 | 0.239 | 0.182 |
| NCI-H838 | 0.276 | 0.29 | 0.296 | 0.296 | 0.886 | 1.11 | 1.36 | 0.114 | 0.182 | 1.14 | 1.23 | 1.34 | 0.802 | 0.305 | 0.288 | 0.332 | 0.343 | 0.29 |
| H3255 | 0.391 | 0.387 | 0.491 | 0.443 | 0.257 | 0.264 | 0.249 | 0.235 | 0.233 | 0.488 | 0.731 | 0.541 | 0.312 | 0.14 | 0.832 | 0.995 | 0.929 | 1.1 |
| NCI-H2170 | 0.631 | 0.465 | 0.616 | 0.566 | 0.253 | 0.25 | 0.247 | 0.272 | 0.258 | 0.524 | 0.54 | 0.662 | 0.294 | 0.516 | 0.817 | 0.722 | 0.417 | 0.734 |
| NCI-H1437 | 0.342 | 0.47 | 0.4 | 0.415 | 0.689 | 1.01 | 1.07 | 0.265 | 0.328 | 1.1 | 1.16 | 1.1 | 0.997 | 0.725 | 1.14 | 1.16 | 1.15 | 1.06 |
| LU99A | 0.539 | 0.492 | 0.708 | 0.547 | 0.946 | 0.849 | 1.08 |  | 0.482 | 0.761 | 0.72 | 1.11 |  | 0.229 | 0.229 | 0.227 | 0.286 | 0.223 |
| SK-MES-1 | 0.417 | 0.474 | 0.315 | 0.437 | 0.416 | 0.477 | 0.5 | 0.449 | 0.295 | 1.22 | 1.18 | 1.31 | 0.817 | 0.678 | 0.796 | 0.839 | 0.874 | 0.819 |
| HCC-827 | 0.399 | 0.283 | 0.294 | 0.344 | 0.163 | 0.21 | 0.186 | 0.169 | 0.17 | 1.04 | 0.952 | 0.949 | 0.932 | 0.489 | 0.639 | 0.747 | 0.704 | 0.732 |
| LK-2 | 0.266 | 0.343 | 0.33 | 0.193 | 0.856 | 1.03 | 0.843 | 0.472 | 0.321 | 0.726 | 1.06 | 0.889 | 0.527 | 0.455 | 0.181 | 0.213 | 0.176 | 0.147 |
| BEN | 0.316 | 0.251 | 0.318 | 0.414 | 0.627 | 0.75 | 0.735 | 0.791 | 0.602 | 0.0867 | 0.0733 | 0.0583 | 0.0663 | 0.0726 | 0.356 | 0.559 | 0.456 | 0.437 |
| NCI-H23 | 0.895 | 0.699 | 0.85 | 0.829 | 1.12 | 1.54 | 1.28 | 0.589 | 0.593 | 0.712 | 0.884 | 1.07 | 0.733 | 0.518 | 0.197 | 0.231 | 0.203 | 0.215 |
| NCI-H1395 | 0.361 | 0.464 | 0.419 | 0.422 | 0.821 | 1.1 | 0.986 | 0.851 | 0.491 | 1.18 | 1.18 | 1.49 | 0.881 | 0.947 | 0.774 | 0.657 | 0.722 | 0.782 |
| 201T | 0.52 | 0.555 | 0.595 | 0.6 | 0.868 | 1.06 | 1.02 | 0.95 | 0.905 | 1.16 | 1.15 | 1.17 | 1.19 | 1.18 | 1.04 | 1.02 | 1.12 | 1.11 |
| NCI-H1793 | 0.43 | 0.397 | 0.418 | 0.499 | 0.823 | 0.692 | 0.641 | 0.144 | 0.207 | 0.336 | 0.442 | 0.398 | 0.206 | 0.17 | 0.163 | 0.203 | 0.158 | 0.217 |
| NCI-H520 | 0.248 | 0.227 | 0.162 | 0.182 | 0.733 | 1.03 | 1.02 | 0.241 | 0.133 | 1.02 | 1.09 | 1.05 | 0.636 | 0.251 | 0.235 | 0.193 | 0.197 | 0.195 |
| NCI-H727 | 0.475 | 0.327 | 0.437 | 0.364 | 0.918 | 0.85 | 0.905 | 0.195 | 0.712 | 0.39 | 0.44 | 0.46 | 0.381 | 0.325 | 0.257 | 0.27 | 0.37 | 0.195 |
| HCC-15 | 0.62 | 0.707 | 0.686 | 0.837 | 0.822 | 1.02 | 0.94 |  | 0.687 | 0.732 | 0.77 | 0.781 |  | 0.509 | 0.309 | 0.446 | 0.372 | 0.329 |
| NCI-H460 | 0.575 | 0.639 | 0.489 | 0.505 | 1.07 | 1.51 |  |  | 0.308 | 1.16 | 1.35 | 1.25 |  | 0.476 | 0.0254 | 0.0436 | 0.0289 | 0.0343 |
| EPLC-272H | 0.393 | 0.482 | 0.458 | 0.473 | 0.888 | 0.924 | 1.1 | 0.442 | 0.228 | 1.03 | 1.18 | 1.21 | 0.63 | 0.589 | 0.237 | 0.433 | 0.388 | 0.393 |
